Data: PubChem BioAssay (NCI)
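Grown in 96-well plates, cells were treated for 48 hours with each compound at five concentrations. Insufficient inhibition: endpoint recorded as highest concentration tested. The concentration for full growth arrest is given as TGI.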

Columns and labels:
Assay in all cases: NCI-60 cell line screen, 48 h
OVCAR-5 ovarian = test system: OVCAR-5 ovarian
KM12 colon = test system: KM12 colon
SF-539 CNS = test system: SF-539 CNS
K-562 leukemia = test system: K-562 leukemia
UACC-257 melanoma = test system: UACC-257 melanoma
TK-10 renal = test system: TK-10 renal
EKVX NSCLC = test system: EKVX NSCLC
UO-31 renal = test system: UO-31 renal
SK-MEL-28 melanoma = test system: SK-MEL-28 melanoma
SK-MEL-5 melanoma = test system: SK-MEL-5 melanoma
SK-MEL-2 melanoma = test system: SK-MEL-2 melanoma
SNB-19 CNS = test system: SNB-19 CNS
SK-OV-3 ovarian = test system: SK-OV-3 ovarian
HCT-116 colon = test system: HCT-116 colon
OVCAR-4 ovarian = test system: OVCAR-4 ovarian
SNB-75 CNS = test system: SNB-75 CNS
CCRF-CEM leukemia = test system: CCRF-CEM leukemia
MALME-3M melanoma = test system: MALME-3M melanoma
CAKI-1 renal = test system: CAKI-1 renal
NCI-H522 lung = test system: NCI-H522 lung

Measured: TGI

CC(C)(C)[Si](C)(C)OCCCCC1CC2(S(=O)(=O)C3=CC=C=C=C3)ON1CC2S(=O)(=O)c1ccccc1 (stereo unspecified)
> 100 µM: OVCAR-5 ovarian | KM12 colon | SF-539 CNS | K-562 leukemia | UACC-257 melanoma | TK-10 renal | EKVX NSCLC | UO-31 renal | SK-MEL-28 melanoma | SK-MEL-5 melanoma | SK-MEL-2 melanoma | SNB-19 CNS | SK-OV-3 ovarian | HCT-116 colon | OVCAR-4 ovarian | SNB-75 CNS

CC(NC(=O)C(N)Cc1ccc(O)cn1)C(=O)O (stereo unspecified)
> 100 µM: OVCAR-5 ovarian | KM12 colon | SF-539 CNS | K-562 leukemia | UACC-257 melanoma | TK-10 renal | EKVX NSCLC | UO-31 renal | SK-MEL-28 melanoma | CCRF-CEM leukemia | MALME-3M melanoma | SK-MEL-5 melanoma | CAKI-1 renal | SNB-19 CNS | HCT-116 colon | NCI-H522 lung | OVCAR-4 ovarian

O=C1C2=Cc3ccccc3OC2(O)Oc2cc(O)ccc21 (stereo unspecified)
> 100 µM: OVCAR-5 ovarian | KM12 colon | SF-539 CNS | K-562 leukemia | UACC-257 melanoma | TK-10 renal | EKVX NSCLC | SK-MEL-28 melanoma | MALME-3M melanoma | SK-MEL-5 melanoma | CAKI-1 renal | SK-MEL-2 melanoma | SK-OV-3 ovarian | HCT-116 colon | SNB-75 CNS
88.7 µM: CCRF-CEM leukemia

CN(/N=C/c1cccs1)c1ccc(Cl)cc1[N+](=O)[O-]
75 µM: SF-539 CNS
> 100 µM: KM12 colon | K-562 leukemia | UACC-257 melanoma | TK-10 renal | EKVX NSCLC | UO-31 renal | SK-MEL-28 melanoma | SK-MEL-5 melanoma | CAKI-1 renal | SNB-19 CNS | SK-OV-3 ovarian | HCT-116 colon | OVCAR-4 ovarian | SNB-75 CNS
73.2 µM: CCRF-CEM leukemia
69.5 µM: NCI-H522 lung

Nc1ncnc2c1ncn2C1C=CC(CP(=O)(O)O)C1 (stereo unspecified)
> 100 µM: OVCAR-5 ovarian | KM12 colon | SF-539 CNS | UACC-257 melanoma | TK-10 renal | EKVX NSCLC | UO-31 renal | SK-MEL-28 melanoma | MALME-3M melanoma | SK-MEL-5 melanoma | CAKI-1 renal | SK-MEL-2 melanoma | SNB-19 CNS | SK-OV-3 ovarian | HCT-116 colon | OVCAR-4 ovarian | SNB-75 CNS

COc1ccccc1C(C1=C(O)COC1=O)c1cc2c(cc1OC(C)=O)OCO2 (stereo unspecified)
> 100 µM: OVCAR-5 ovarian | KM12 colon | SF-539 CNS | K-562 leukemia | UACC-257 melanoma | TK-10 renal | EKVX NSCLC | UO-31 renal | SK-MEL-28 melanoma | CCRF-CEM leukemia | MALME-3M melanoma | SK-MEL-5 melanoma | CAKI-1 renal | SNB-19 CNS | SK-OV-3 ovarian | HCT-116 colon | OVCAR-4 ovarian | SNB-75 CNS

CCOC(=O)CC(=O)C(=O)NNC1=NCCCN1
> 100 µM: OVCAR-5 ovarian | KM12 colon | SF-539 CNS | K-562 leukemia | TK-10 renal | EKVX NSCLC | UO-31 renal | SK-MEL-28 melanoma | CCRF-CEM leukemia | MALME-3M melanoma | SK-MEL-5 melanoma | SK-MEL-2 melanoma | SNB-19 CNS | SK-OV-3 ovarian | HCT-116 colon | OVCAR-4 ovarian | SNB-75 CNS

CC(C)OCC(O)COc1ccc2ccc(=O)oc2c1 (stereo unspecified)
> 100 µM: OVCAR-5 ovarian | KM12 colon | K-562 leukemia | UACC-257 melanoma | TK-10 renal | EKVX NSCLC | UO-31 renal | SK-MEL-28 melanoma | CCRF-CEM leukemia | MALME-3M melanoma | SK-MEL-5 melanoma | CAKI-1 renal | SNB-19 CNS | SK-OV-3 ovarian | HCT-116 colon | NCI-H522 lung | OVCAR-4 ovarian | SNB-75 CNS

CC(=O)OCC1OC(n2c(C)c(N=Nc3ccccc3)c(C)c(C#N)c2=S)C(OC(C)=O)C(OC(C)=O)C1OC(C)=O (stereo unspecified)
> 100 µM: OVCAR-5 ovarian | KM12 colon | SF-539 CNS | K-562 leukemia | UACC-257 melanoma | UO-31 renal | SK-MEL-28 melanoma | CCRF-CEM leukemia | MALME-3M melanoma | SK-MEL-5 melanoma | CAKI-1 renal | SNB-19 CNS | SK-OV-3 ovarian | OVCAR-4 ovarian
7.03 µM: SNB-75 CNS
60 µM: HCT-116 colon
81.8 µM: TK-10 renal
62.2 µM: SK-MEL-2 melanoma

COC(=O)CCC(NC(=O)C(C)NC(=O)COC1C(O)C(OC(=O)CCNc2c3ccccc3nc3cccc([N+](=O)[O-])c23)OC(OCc2ccccc2)C1NC(C)=O)C(N)=O (stereo unspecified)
9.11 µM: HCT-116 colon
7.06 µM: MALME-3M melanoma
5.57 µM: SK-MEL-2 melanoma
> 10 µM: OVCAR-5 ovarian | KM12 colon | SF-539 CNS | K-562 leukemia | UACC-257 melanoma | TK-10 renal | EKVX NSCLC | UO-31 renal | CCRF-CEM leukemia | SK-MEL-5 melanoma | SNB-19 CNS | SK-OV-3 ovarian | SNB-75 CNS

CCOC(=O)c1nc2ccccc2nc1NCc1ccc(OC)cc1
> 100 µM: OVCAR-5 ovarian | KM12 colon | SF-539 CNS | K-562 leukemia | UACC-257 melanoma | TK-10 renal | EKVX NSCLC | UO-31 renal | SK-MEL-28 melanoma | CCRF-CEM leukemia | MALME-3M melanoma | SK-MEL-5 melanoma | CAKI-1 renal | SK-OV-3 ovarian | HCT-116 colon | NCI-H522 lung | OVCAR-4 ovarian | SNB-75 CNS

COc1ccc(CNc2nc3cc(C(F)(F)F)ccc3nc2C(=O)O)cc1OC
> 100 µM: OVCAR-5 ovarian | KM12 colon | SF-539 CNS | UACC-257 melanoma | EKVX NSCLC | UO-31 renal | SK-MEL-28 melanoma | CAKI-1 renal | SNB-19 CNS | SK-OV-3 ovarian | OVCAR-4 ovarian | SNB-75 CNS
92.9 µM: CCRF-CEM leukemia
75.4 µM: HCT-116 colon
43.7 µM: SK-MEL-5 melanoma
51.8 µM: SK-MEL-2 melanoma
74.7 µM: K-562 leukemia

OC(c1cccnc1)C(F)(F)c1nc2ccccc2o1 (stereo unspecified)
> 100 µM: KM12 colon | SF-539 CNS | K-562 leukemia | UACC-257 melanoma | TK-10 renal | EKVX NSCLC | UO-31 renal | SK-MEL-28 melanoma | CCRF-CEM leukemia | SK-MEL-5 melanoma | CAKI-1 renal | SK-MEL-2 melanoma | SNB-19 CNS | HCT-116 colon | OVCAR-4 ovarian | SNB-75 CNS
